Results from patent US20240215582A1, “METHODS OF CONTROLLING PLANT PATHOGENS” (Valent BioSciences LLC, priority 2022, published 2024).
Where two headings read alike, the source gives them in different places. Marks after values point to notes of the source that are not given here.

Legend:
Cochliobolus miyabeanus = experiment: In vitro growth on cervinomycin-amended growth media; type: cell-based
Phytophthora infestans = type: in vivo
Zymoseptoria tritici = experiment: Host plant efficacy assay (wheat); type: in vivo; details: in vivo
Podosphaera xanthii = experiment: Host plant efficacy assay (cucumber); type: in vivo; details: in vivo
Fusarium graminearum = type: cell-based
[1] = tested on: Pseudoperonospora cubensis; experiment: Foliar application, inoculated plants, disease severity; details: for Disease severity P. cubensis Oct. 20, 2020: carrier control severity 70; for Disease severity P. cubensis Oct. 27, 2020: carrier control severity 79; for Disease severity P. cubensis Jul. 28, 2020: carrier control severity 67; for Disease severity P. cubensis Jul. 21, 2020: carrier control severity 100
Method: (§1) Biological efficacy assays utilizing cervinomycins were conducted on Pseudoperonospora cubensis and Botrytis cinerea. […] Once plants had dried they were inoculated with the pathogen, then were stored in a controlled climate chamber under high humidity for 4-6 days. At the end of the experiment disease severity was determined based on the percentage of plant tissue that was visually symptomatic.

Pyrenophora teres = experiment: Host plant efficacy assay (barley); type: in vivo; details: in vivo
Plasmospora viticola = experiment: Efficacy on grape plants infected with Plasmospora viticola; details: for % control Plasmospora viticola 1DAI: 1 day after infection; for % control Plasmospora viticola 1DAI / % control Plasmospora viticola 1DB1 / % control Plasmospora viticola 7DBI: grape plants; for % control Plasmospora viticola 1DB1: 1 day before infection; for % control Plasmospora viticola 7DBI: 7 days before infection
From the text: Treatments occurred at either 1 day before infection (“1 DBI”), 7 days before infection (“7 DBI”) or 1 day after infection (“1 DAI”).

Phakopsora pachyrhizi = experiment: Host plant efficacy assay (soybean); type: in vivo; details: in vivo
Botrytis cinerea = experiment: Foliar application, inoculated plants, disease severity; details: for Disease severity B. cinerea: carrier control severity 63.3; for percent control B. cinerea: vs carrier control
Method: as §1

Erysiphe diffusa = experiment: Host plant efficacy assay (soybean); type: in vivo; details: in vivo
Magnaporthe oryzae = type: in vivo
[2] = 1 ppm foliar, vs carrier control
[3] = 3 ppm foliar, vs carrier control
[4] = 6 ppm foliar, vs carrier control
[5] = 12 ppm foliar, vs carrier control
[6] = 25 ppm foliar, vs carrier control
[7] = 30 ppm foliar, vs carrier control
[8] = 50 ppm foliar, vs carrier control

With `COc1cc2oc3c(O)c4ccc5cc6c(c(O)c5c4c(O)c3c(=O)c2cc1OC)C(=O)N1CCOC1(C)C6` (centres unmarked) [Cervinomycin A1, cervinomycin A1] the “% Control Cochliobolus miyabeanus” value (Cochliobolus miyabeanus; 0.004 ppm in growth media) was 1%, the “% Control Cochliobolus miyabeanus” value (Cochliobolus miyabeanus; 0.016 ppm in growth media) was 2% and the “% Control Cochliobolus miyabeanus” value (Cochliobolus miyabeanus; 0.063 ppm in growth media) was 29%. The “% Control Cochliobolus miyabeanus” value (Cochliobolus miyabeanus; 0.25 ppm in growth media) was 59%, the “% Control Cochliobolus miyabeanus” value (Cochliobolus miyabeanus; 1 ppm in growth media) was 74% and the “% control Phytophthora infestans Tomato 1DBI” value (Phytophthora infestans; 11.3 ppm) was 0 (0 (about 0%)). For the same molecule, the “% control Phytophthora infestans Tomato 1DBI” value (Phytophthora infestans; 45 ppm) was 0 (0 (about 0%)), the “% control Phytophthora infestans Tomato 1DBI” value (Phytophthora infestans; 180 ppm) was 3 (3 (about 70%)) and the “% control Zymoseptoria tritici Wheat 3DAI” value (Zymoseptoria tritici) was 0 (key: 5 (about 100%); 4 (about 90%); 3 (about 70%); 2 (about 50%); 1 (about 25%); 0 (about 0%)). The “% control Zymoseptoria tritici Wheat 4DBI” value (Zymoseptoria tritici) was 0 (key: 5 (about 100%); 4 (about 90%); 3 (about 70%); 2 (about 50%); 1 (about 25%); 0 (about 0%)), the “% control Podosphaera xanthii Cucumber 1DBI” value (Podosphaera xanthii) was 0 (key: 5 (about 100%); 4 (about 90%); 3 (about 70%); 2 (about 50%); 1 (about 25%); 0 (about 0%)) and the “% Control Fusarium graminearum” value (Fusarium graminearum; 0.004 ppm in growth media) was 4%. The “% Control Fusarium graminearum” value (Fusarium graminearum; 0.016 ppm in growth media) was 6%, the “% Control Fusarium graminearum” value (Fusarium graminearum; 0.063 ppm in growth media) was 7% and the “% Control Fusarium graminearum” value (Fusarium graminearum; 0.25 ppm in growth media) was 20%. The “% Control Fusarium graminearum” value (Fusarium graminearum; 1 ppm in growth media) was 31%, the “Disease severity P. cubensis Oct. 20, 2020” value ([1]; 1 ppm foliar) was 13% and the “Disease severity P. cubensis Oct. 27, 2020” value ([1]; 1 ppm foliar) was 2%. The “percent control P. cubensis Oct. 20, 2020” value [1, 2] was “(81%)*”, the “percent control P. cubensis Oct. 27, 2020” value [1, 2] was 98% and the “Disease severity P. cubensis Jul. 28, 2020” value ([1]; 3 ppm foliar) was 47%. The “Disease severity P. cubensis Oct. 20, 2020” value ([1]; 3 ppm foliar) was 3%, the “Disease severity P. cubensis Oct. 27, 2020” value ([1]; 3 ppm foliar) was 1% and the “percent control P. cubensis Jul. 28, 2020” value [1, 3] was 30%. The “percent control P. cubensis Oct. 20, 2020” value [1, 3] was “(96%)”, the “percent control P. cubensis Oct. 27, 2020” value [1, 3] was 99% and the “Disease severity P. cubensis Oct. 20, 2020” value ([1]; 6 ppm foliar) was 2%. For the same molecule, the “Disease severity P. cubensis Oct. 27, 2020” value ([1]; 6 ppm foliar) was 1%, the “percent control P. cubensis Oct. 20, 2020” value [1, 4] was “(97%)” and the “percent control P. cubensis Oct. 27, 2020” value [1, 4] was 99%. The “Disease severity P. cubensis Jul. 28, 2020” value ([1]; 7.5 ppm foliar) was 43%, the “percent control P. cubensis Jul. 28, 2020” value ([1]; 7.5 ppm foliar, vs carrier control) was 36% and the “Disease severity P. cubensis Oct. 20, 2020” value ([1]; 12 ppm foliar) was 1%. The “Disease severity P. cubensis Oct. 27, 2020” value ([1]; 12 ppm foliar) was 2%, the “percent control P. cubensis Oct. 20, 2020” value [1, 5] was “(99%)” and the “percent control P. cubensis Oct. 27, 2020” value [1, 5] was 98%. For the same molecule, the “Disease severity P. cubensis Jul. 28, 2020” value ([1]; 15 ppm foliar) was 16%, the “percent control P. cubensis Jul. 28, 2020” value ([1]; 15 ppm foliar, vs carrier control) was 76% and the “Disease severity P. cubensis Oct. 20, 2020” value ([1]; 25 ppm foliar) was 1%. The “Disease severity P. cubensis Oct. 27, 2020” value ([1]; 25 ppm foliar) was 1%, the “percent control P. cubensis Oct. 20, 2020” value [1, 6] was “(99%)” and the “percent control P. cubensis Oct. 27, 2020” value [1, 6] was 99%. For the same molecule, the “Disease severity P. cubensis Jul. 28, 2020” value ([1]; 30 ppm foliar) was 7%, the “Disease severity P. cubensis Jul. 14, 2020” value ([1]; 30 ppm foliar, carrier control severity 98) was 25% and the “Disease severity P. cubensis Jul. 21, 2020” value ([1]; 30 ppm foliar) was 3%. The “percent control P. cubensis Jul. 14, 2020” value [1, 7] was 74%, the “percent control P. cubensis Jul. 21, 2020” value [1, 7] was 97% and the “percent control P. cubensis Jul. 28, 2020” value [1, 7] was 89%. For the same molecule, the “Disease severity P. cubensis Oct. 20, 2020” value ([1]; 50 ppm foliar) was 0.4%, the “Disease severity P. cubensis Oct. 27, 2020” value ([1]; 50 ppm foliar) was 1% and the “percent control P. cubensis Oct. 20, 2020” value [1, 8] was “(99%)”. For the same molecule, the “percent control P. cubensis Oct. 27, 2020” value [1, 8] was 99%, the “Disease severity P. cubensis Jul. 21, 2020” value ([1]; 192 ppm foliar) was 3% and the “percent control P. cubensis Jul. 21, 2020” value ([1]; 192 ppm foliar, vs carrier control) was 97%. The “control of Pseudoperonospora cubensis (summary of Table 3)” value ([1]; foliar application) was “significant control”, the “% control Pyrenophora teres Barley 1DBI” value (Pyrenophora teres) was 0 (key: 5 (about 100%); 4 (about 90%); 3 (about 70%); 2 (about 50%); 1 (about 25%); 0 (about 0%)) and the “control of P. viticiola (summary of Table 1)” value (Plasmospora viticola; 13-800 ppm) was “significant control”. For the same molecule, the “% control Plasmospora viticola 1DAI” value (Plasmospora viticola; 13 ppm) was 0%, the “% control Plasmospora viticola 1DB1” value (Plasmospora viticola; 13 ppm) was 100% and the “% control Plasmospora viticola 7DBI” value (Plasmospora viticola; 13 ppm) was 80%. For the same molecule, the “% control Plasmospora viticola 1DAI” value (Plasmospora viticola; 50 ppm) was 0%, the “% control Plasmospora viticola 1DB1” value (Plasmospora viticola; 50 ppm) was 100% and the “% control Plasmospora viticola 1DAI” value (Plasmospora viticola; 200 ppm) was 0%. For the same molecule, the “% control Plasmospora viticola 1DB1” value (Plasmospora viticola; 200 ppm) was 100%, the “% control Plasmospora viticola 7DBI” value (Plasmospora viticola; 200 ppm) was 100% and the “% control Plasmospora viticola 1DAI” value (Plasmospora viticola; 800 ppm) was 7%. The “% control Plasmospora viticola 1DB1” value (Plasmospora viticola; 800 ppm) was 100%, the “% control Plasmospora viticola 7DBI” value (Plasmospora viticola; 800 ppm) was 100% and the “% control Phakopsora pachyrhizi Soybean 3DAI” value (Phakopsora pachyrhizi) was 0 (key: 5 (about 100%); 4 (about 90%); 3 (about 70%); 2 (about 50%); 1 (about 25%); 0 (about 0%)). For the same molecule, the “Disease severity B. cinerea” value (Botrytis cinerea; 1 ppm foliar) was 31%, the “percent control B. cinerea” value (Botrytis cinerea; 1 ppm foliar) was “(51%)” and the “Disease severity B. cinerea” value (Botrytis cinerea; 3 ppm foliar) was 17%. The “percent control B. cinerea” value (Botrytis cinerea; 3 ppm foliar) was “(74%)”, the “Disease severity B. cinerea” value (Botrytis cinerea; 6 ppm foliar) was 9% and the “percent control B. cinerea” value (Botrytis cinerea; 6 ppm foliar) was “(85%)”. The “Disease severity B. cinerea” value (Botrytis cinerea; 12 ppm foliar) was 2%, the “percent control B. cinerea” value (Botrytis cinerea; 12 ppm foliar) was “(96%)” and the “Disease severity B. cinerea” value (Botrytis cinerea; 25 ppm foliar) was 2%. For the same molecule, the “percent control B. cinerea” value (Botrytis cinerea; 25 ppm foliar) was “(96%)”, the “Disease severity B. cinerea” value (Botrytis cinerea; 50 ppm foliar) was 1% and the “percent control B. cinerea” value (Botrytis cinerea; 50 ppm foliar) was “(98%)”. The “control of Botrytis cinerea (summary of Table 3)” value (Botrytis cinerea; foliar application) was “significant control”, the “% control Erysiphe diffusa Soybean 2DAI” value (Erysiphe diffusa) was 0 (key: 5 (about 100%); 4 (about 90%); 3 (about 70%); 2 (about 50%); 1 (about 25%); 0 (about 0%)) and the “% control Magnaporthe oryzae Rice 1DBI” value (Magnaporthe oryzae; 11.3 ppm) was 0 (0 (about 0%)). For the same molecule, the “% control Magnaporthe oryzae Rice 1DBI” value (Magnaporthe oryzae; 45 ppm) was 0 (0 (about 0%)) and the “% control Magnaporthe oryzae Rice 1DBI” value (Magnaporthe oryzae; 180 ppm) was 0 (0 (about 0%)).
